{
  "source": "patent US20050169988A1",
  "about": "“High molecular weight, lipophilic, orally ingestible bioactive agents in formulations having improved bioavailability” (Shaklee Corporation, priority 2001, published 2005)",
  "origin": "cited, not measured here",
  "data": [
    {"compound": "COC1=C(OC)C(=O)C(C/C=C(\\C)CC/C=C(\\C)CC/C=C(\\C)CC/C=C(\\C)CC/C=C(\\C)CC/C=C(\\C)CC/C=C(\\C)CC/C=C(\\C)CC/C=C(\\C)CCC=C(C)C)=C(C)C1=O", "note": "[CoQ10, 2,3-dimethoxy-5-methyl-6-decaprenyl-1,4-benzoquinone]", "values": [
      {"measurement": "Solubility in water", "value": "practically insoluble in water"}
    ]}
  ]
}
